Among the test systems are 786-0 renal; A498 renal; ACHN renal; BT-549 breast; CAKI-1 renal; DU-145 prostate; HCT-15 colon; HOP-92 NSCLC; HS 578T breast; M14 melanoma; MDA-MB-435; NCI-H226 lung; NCI/ADR-RES ovarian; OVCAR-5 ovarian; PC-3 prostate; RXF 393 renal; SF-268 CNS; SNB-75 CNS; SR leukemia; TK-10 renal.
Assay in all cases: growth of human tumour cells (NCI), 48 h

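In this assay, cells in 96-well plates receive the compound at five concentrations for 48 hours. Endpoints are linearly interpolated between the surrounding concentrations. At the TGI there is no net growth.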

With `CN(CC1(CO)CCC1)c1cc(Cl)nc(N)n1`, the TGI in the test on 786-0 renal, in the test with A498 renal, in the test with ACHN renal, in the test with BT-549 breast, with CAKI-1 renal and with DU-145 prostate was > 100 µM throughout. The TGI in the test with HCT-15 colon, with HOP-92 NSCLC, in the test with HS 578T breast, in the test with M14 melanoma, with MDA-MB-435 and in the test with NCI-H226 lung was > 100 µM throughout. The TGI in the test with NCI/ADR-RES ovarian, with OVCAR-5 ovarian, in the test with PC-3 prostate, in the test with RXF 393 renal, in the test on SF-268 CNS and with SNB-75 CNS was > 100 µM each time. The TGI in the test on SR leukemia and in the test on TK-10 renal was > 100 µM in each case.
With `O=CC(=C(I)I)c1ccccc1`, the TGI amounted to 5.78 µM with 786-0 renal; 40.7 µM in the test with A498 renal; 8.8 µM with ACHN renal; 14.1 µM in the test on BT-549 breast; 7.83 µM in the test on CAKI-1 renal; 19.5 µM in the test on DU-145 prostate. The TGI in the test on HCT-15 colon worked out at 5.01 µM; in the test with HOP-92 NSCLC, 6.57 µM; with HS 578T breast it was 12.6 µM; in the test with M14 melanoma it was 4.6 µM; in the test on MDA-MB-435 it was 5.65 µM; in the test with NCI-H226 lung it was 32 µM. For the same molecule, the TGI in the test on NCI/ADR-RES ovarian was > 38.5 µM; in the test with OVCAR-5 ovarian, 15.1 µM; with PC-3 prostate, 13.7 µM; in the test on RXF 393 renal it was 3.58 µM; in the test with SF-268 CNS, 9.97 µM; in the test with SNB-75 CNS it was 9.97 µM. Further, the figures for the TGI in the test on SR leukemia and with TK-10 renal were 1.25 µM and 5.83 µM, respectively.
For the molecule `O=c1c2nn3c(=O)n(-c4ccccc4)c(=O)c3nn2c(=O)n1-c1ccccc1`, the TGI in the test on 786-0 renal, in the test on A498 renal, with ACHN renal, in the test with BT-549 breast, in the test with CAKI-1 renal and in the test with DU-145 prostate was > 100 µM in each case. Besides, the TGI in the test on HCT-15 colon, in the test on HOP-92 NSCLC, with HS 578T breast, in the test with M14 melanoma, in the test with MDA-MB-435 and in the test on NCI-H226 lung was > 100 µM in each case. Besides, the TGI with NCI/ADR-RES ovarian, with OVCAR-5 ovarian, in the test with PC-3 prostate, in the test with RXF 393 renal, in the test on SF-268 CNS and in the test with SNB-75 CNS was > 100 µM in each case. Besides, the TGI in the test on SR leukemia and with TK-10 renal was > 100 µM throughout.
Consider `CC(=O)NC(CS/N=N/c1nc[nH]c1C(N)=O)C(=O)O` (stereo not given), for which the TGI was > 100 µM with 786-0 renal; > 100 µM in the test with A498 renal; > 100 µM in the test with ACHN renal; > 100 µM in the test with BT-549 breast; > 41.2 µM in the test on CAKI-1 renal; > 100 µM in the test with DU-145 prostate. Moreover, the TGI in the test with HCT-15 colon, with HOP-92 NSCLC, in the test on HS 578T breast, in the test with M14 melanoma, with MDA-MB-435 and in the test on NCI-H226 lung was > 100 µM in each case. Further, the TGI in the test on NCI/ADR-RES ovarian, with OVCAR-5 ovarian, in the test with PC-3 prostate, with RXF 393 renal, in the test on SF-268 CNS and in the test on SNB-75 CNS was > 100 µM throughout. Also, the values for the TGI with SR leukemia and with TK-10 renal were 0.0673 µM and > 100 µM, respectively.
As for `CSc1ncc2c(C#N)c3sc4ccccc4n3c(=O)c2n1`, the TGI with 786-0 renal, in the test on A498 renal, in the test on ACHN renal, in the test on BT-549 breast, in the test on CAKI-1 renal and with DU-145 prostate was > 100 µM each time. In addition, the TGI with HCT-15 colon was > 100 µM; with HOP-92 NSCLC, > 100 µM; in the test with HS 578T breast, 51.3 µM; with M14 melanoma, > 100 µM; with MDA-MB-435, > 100 µM; with NCI-H226 lung, > 100 µM. Moreover, the TGI in the test with NCI/ADR-RES ovarian is > 100 µM; with OVCAR-5 ovarian, > 100 µM; with PC-3 prostate it was > 100 µM; with RXF 393 renal it was > 100 µM; with SF-268 CNS, 52.9 µM; in the test with SNB-75 CNS, > 100 µM. Also, the TGI in the test with SR leukemia and in the test with TK-10 renal was > 100 µM in each case.
For the molecule `O=c1cc(NNc2ccccc2)[nH]c(=S)[nH]1`, the TGI in the test with 786-0 renal was > 100 µM; in the test on A498 renal, > 100 µM; in the test on ACHN renal, > 100 µM; with BT-549 breast it was > 100 µM; in the test on CAKI-1 renal, 35.9 µM; with DU-145 prostate, > 100 µM. For the same molecule, the TGI with HCT-15 colon was 42.1 µM; with HOP-92 NSCLC, > 100 µM; with HS 578T breast it was > 100 µM; in the test with M14 melanoma, > 100 µM; with MDA-MB-435, > 100 µM; in the test on NCI-H226 lung it was > 100 µM. In addition, the TGI with NCI/ADR-RES ovarian, with OVCAR-5 ovarian, in the test on PC-3 prostate, in the test on RXF 393 renal, with SF-268 CNS and with SNB-75 CNS was > 100 µM in each case. Further, the figures for the TGI with SR leukemia and with TK-10 renal were 70.3 µM and 90.6 µM, respectively.

For the origin of these results see PubChem BioAssay (NCI).
